Laboratory results: ChEMBL document CHEMBL1811820, “Vicenin-2, a potential anti-inflammatory constituent of Urtica circularis” (J Nat Prod, 2011)
The source made the active and inactive calls. No cut-off for these calls is given here.

How the values were obtained:
[1] = test system: Rattus norvegicus; test: Antiinflammatory activity against Sprague-Dawley rat assessed as inhibition of carrageenan-induced paw edema at 10 mg/kg, ip administered 30 mins prior to carrageenan challenge measured after 5 hrs; format: functional; conditions: route intraperitoneal
[2] = test system: Mus musculus; test: Antiinflammatory activity against Swiss mouse assessed as inhibition of 12-O-tetradecanoylphorbol acetate-induced ear edema at 1 mg/ear, topically administered measured after 4 hrs of 12-O-tetradecanoylphorbol acetate-challenge; format: functional
[3] = test system: Peritoneal macrophage cell; test: Antiinflammatory activity in mouse peritoneal macrophage assessed as decrease in LPS-stimulated TNFalpha release at 0.01 to 10 ug/mL after 24 hrs by ELISA relative to control in presence of LPS; format: functional, cell-based
[4] = molecular target: Transcription factor p65 (Mus musculus) (UniProt Q04207); test: Inhibition of NF-kappaB p65 nuclear translocation in LPS-stimulated mouse peritoneal macrophage at 0.01 to 10 ug/mL after 24 hrs by nuclear absorbance assay
[5] = Antiinflammatory activity in mouse peritoneal macrophage assessed as increase in LPS-stimulated TNFalpha release at 100 to 1000 ug/mL after 24 hrs by ELISA relative to control in presence of LPS; format: functional, Peritoneal macrophage cell
[6] = molecular target: Transcription factor p65 (Mus musculus) (UniProt Q04207); test: Inhibition of NF-kappaB p65 nuclear translocation in LPS-stimulated mouse peritoneal macrophage at 10 to 500 ug/mL after 24 hrs by nuclear absorbance assay
[7] = Pro-inflammatory activity in mouse peritoneal macrophage assessed as increased NO production at 1000 ug/mL after 10 mins using Griess reagent by spectrophotometry in presence of LPS; format: ADME, cell-based; conditions: peritoneal macrophage cell
[8] = Antiinflammatory activity in mouse peritoneal macrophage assessed as decreased LPS-stimulated NO production at 10 to 500 ug/mL after 10 mins using Griess reagent by spectrophotometry; format: functional, Peritoneal macrophage cell
[9] = Antiinflammatory activity in mouse peritoneal macrophage assessed as decreased LPS-stimulated NO production at 0.01 to 1 ug/mL after 10 mins using Griess reagent by spectrophotometry; format: functional, Peritoneal macrophage cell
[10] = molecular target: Transcription factor p65 (Mus musculus) (UniProt Q04207); test: Increase in NF-kappaB p65 nuclear translocation in LPS-stimulated mouse peritoneal macrophage at 1000 ug/mL after 24 hrs by nuclear absorbance assay

Chain of Transcription factor p65 (Mus musculus) (Q04207 whole entry): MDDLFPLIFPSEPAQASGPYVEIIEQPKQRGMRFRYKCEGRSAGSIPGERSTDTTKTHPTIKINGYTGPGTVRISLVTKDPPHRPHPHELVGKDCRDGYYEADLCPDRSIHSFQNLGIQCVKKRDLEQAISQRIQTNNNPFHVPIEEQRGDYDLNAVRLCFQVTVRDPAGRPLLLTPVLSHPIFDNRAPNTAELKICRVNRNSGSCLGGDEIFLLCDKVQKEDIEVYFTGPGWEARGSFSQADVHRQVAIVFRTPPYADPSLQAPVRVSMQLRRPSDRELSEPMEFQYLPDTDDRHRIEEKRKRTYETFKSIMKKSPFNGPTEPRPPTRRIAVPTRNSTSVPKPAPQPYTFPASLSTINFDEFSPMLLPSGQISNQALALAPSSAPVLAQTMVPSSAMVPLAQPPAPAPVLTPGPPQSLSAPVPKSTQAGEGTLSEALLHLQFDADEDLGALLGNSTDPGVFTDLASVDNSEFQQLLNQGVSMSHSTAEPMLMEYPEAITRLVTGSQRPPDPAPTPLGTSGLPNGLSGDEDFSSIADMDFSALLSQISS

inhibition [4] | inhibition [6] | Activity [10] | Structure (SMILES) | inhibition in vivo at 10 mg/kg [1] | inhibition (INH) [2] | Activity [3] | Activity [5] | Activity [7] | inhibition (INH) [8] | inhibition (INH) [9]
 |  |  | COc1ccc2c(c1)c(CC(=O)O)c(C)n2C(=O)c1ccc(Cl)cc1 [INDOMETHACIN] | 38.4% | 87.3% |  |  |  |  | 
Active | inactive | inactive | O=c1cc(-c2ccc(O)cc2)oc2c([C@@H]3O[C@H](CO)[C@@H](O)[C@H](O)[C@H]3O)c(O)c([C@@H]3O[C@H](CO)[C@@H](O)[C@H](O)[C@H]3O)c(O)c12 |  |  | Active | 62% | Toxic | 16% | 70%
